Experimental data as given in patent US11266643B2, “Triaryl compounds for treatment of PD-L1 diseases” (CHEMOCENTRYX, INC., priority 2019, dated 2022).

Target: human PD-L1 (Homo sapiens (Human), UniProt Q9NZQ7)
Experiment: Enzyme-Linked Immunosorbent Assay (ELISA), PD-1/PD-L1 binding
Procedure, shortened: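 Plates coated with […] human PD-L1 overnight at 4° C, blocked, then 1:5 serial compound dilutions added with human PD-1 […] 0.31 μg/mL for 1 h at 37° C. Bound PD-1 detected with streptavidin-HRP and TMB (20 min, 37° C); absorbance read at 450 nm after H2SO4 stop.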

[1] = human PD-1/PD-L1 ELISA, plates coated with human PD-L1
[2] = PD-1/PD-L1 ELISA, human PD-L1 coated plates, Table 1
[3] = plate-coated human PD-L1, biotinylated Human PD-1, absorbance at 450 nm

Sequence of human PD-L1 (Q9NZQ7 19-239): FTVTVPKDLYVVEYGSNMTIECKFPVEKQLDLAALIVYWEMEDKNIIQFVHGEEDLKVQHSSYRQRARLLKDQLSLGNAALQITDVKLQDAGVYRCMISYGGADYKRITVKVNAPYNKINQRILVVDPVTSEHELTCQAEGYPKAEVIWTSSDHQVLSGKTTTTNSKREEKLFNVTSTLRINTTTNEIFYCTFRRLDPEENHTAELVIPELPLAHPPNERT

IC50 [1] [nM] | IC50 [2] [nM] | Structure (SMILES) | further results
– | < 10 | COc1cc(-c2cccc(-c3cccc(NC(=O)c4cncn(C)c4=O)c3C)c2C)cc(F)c1CNC[C@@H](C)O [Example 1.203] | –
– | < 10 | COc1cc(-c2cccc(-c3cccc(NC(=O)c4ccccn4)c3C)c2Cl)cc(F)c1CN1CC(C(=O)O)C1 [Example 1.365] | –
– | < 10 | COc1cc(-c2cccc(-c3cccc(Nc4nccc5nccnc45)c3C)c2C)cc(F)c1CN[C@@H]1CNC(=O)C1 [Example 1.206] | –
– | < 10 | COc1cc(-c2cccc(-c3cccc(NC(=O)c4ccc(C(=O)N(C)C)cn4)c3C)c2C)cc(F)c1CN [Example 1.306] | –
– | < 10 | COc1ccc(C(=O)Nc2cccc(-c3cccc(-c4cc(F)c(CN5CC(C(=O)O)C5)c(OC)c4)c3C)c2C)nc1 [Example 1.351] | –
– | < 10 | COc1cc(-c2cccc(-c3cccc(NC(=O)c4ccncn4)c3C)c2C)cc(F)c1CN1CC(C)(C(=O)O)C1 [Example 1.340] | –
– | 10 to 1000 | COc1cc(-c2cccc(-c3cccc(NC(=O)c4c[nH]c(=O)n(C)c4=O)c3C)c2C)cc(F)c1CNC1CNC1 [Example 1.212] | –
– | 10 to 1000 | COc1cc(-c2cccc(-c3cccc(NC(=O)c4ccc(C(=O)O)cn4)c3C)c2C)cc(F)c1CN [Example 1.352] | –
– | 10 to 1000 | COc1cc(-c2cccc(-c3cccc(NC(=O)c4ccccn4)c3C)c2F)cc(F)c1CN1CC(C(=O)O)C1 [Example 1.348] | –
– | < 10 | COc1cc(-c2cccc(-c3cccc(NC(=O)c4c[nH]c(=O)n(C)c4=O)c3C)c2C)cc(F)c1CNC[C@@H]1CCC(=O)N1 [Example 1.201] | –
– | 10 to 1000 | COc1cc(-c2cccc(-c3cccc(NC(=O)c4ccccn4)c3C)c2C)cc(F)c1CN1CCOC[C@@H]1CO [Example 1.372] | –
– | < 10 | COc1cc(-c2cccc(-c3cccc(NC(=O)c4ccccn4)c3C)c2C)cc(F)c1CN1CC(C)(C(=O)O)C1 [Example 1.360] | –

Second part, the compound before the results:

Structure (SMILES) | IC50 [1] [nM] | IC50 [2] [nM] | further results
COc1cc(-c2cccc(-c3cccc(NC(=O)c4cncn(C)c4=O)c3C)c2C)cc(F)c1CNC1CCNC(=O)C1 (stereo not shown) [Example 1.103] | < 10 | – | –
COc1cc(-c2cccc(-c3cccc(Nc4nccc5nccnc45)c3C)c2Cl)cc(F)c1CN[C@H]1CCC(=O)NC1 [Example 2.116] | – | – | IC50 [3]: < 10 nM
COc1cc(-c2cccc(-c3cccc(NC(=O)c4cncn(C)c4=O)c3C)c2Cl)cc(F)c1CN[C@H]1CCC(=O)NC1 [Example 2.041] | – | – | IC50 [3]: < 10 nM
COc1cc(-c2cccc(-c3cccc(NC(=O)c4cn(C)c(=O)n(C)c4=O)c3C)c2C)cc(F)c1CNCCCC(N)=O [Example 1.081] | < 10 | – | –
COc1cc(-c2cccc(-c3cccc(NC(=O)c4cn(C)c(=O)n(C)c4=O)c3C)c2Cl)cc(F)c1CN[C@H]1COC[C@@H]1O [Example 2.092] | – | – | IC50 [3]: < 10 nM
COc1cc(-c2cccc(-c3cccc(NC(=O)c4cn(C)c(=O)n(C)c4=O)c3C)c2Cl)cc(F)c1CN[C@H]1COCC[C@@H]1O [Example 2.088] | – | – | IC50 [3]: < 10 nM
COc1cc(-c2cccc(-c3cccc(NC(=O)c4cn(C)c(=O)n(C)c4=O)c3C)c2C)cc(F)c1CN[C@H]1COCC[C@@H]1O [Example 1.001] | < 10 | – | –
COc1cc(-c2cccc(-c3cccc(Nc4cncc5nccnc45)c3C)c2C)cc(F)c1CN[C@@H]1CNC(=O)C1 [Example 1.043] | < 10 | – | –
COc1cc(-c2cccc(-c3cccc(NC(=O)c4cn(C)c(=O)n(C)c4=O)c3C)c2F)cc(F)c1CN[C@@H]1CCOC[C@H]1O [Example 2.099] | – | – | IC50 [3]: < 10 nM
COc1cc(-c2cccc(-c3cccc(Nc4nccc5nccnc45)c3C)c2C)cc(F)c1CNC[C@H]1CCC(=O)N1 [Example 1.159] | < 10 | – | –
COc1cc(-c2cccc(-c3cccc(NC(=O)c4c[nH]c(=O)n(C)c4=O)c3C)c2C)cc(F)c1CN[C@@H]1COC[C@H]1O [Example 1.078] | < 10 | – | –
COc1cc(-c2cccc(-c3cccc(NC(=O)c4cn(C)c(=O)n(C)c4=O)c3C)c2Cl)cc(F)c1CN[C@H]1CCOC[C@H]1O [Example 2.104] | – | – | IC50 [3]: < 10 nM
COc1cc(-c2cccc(-c3cccc(Nc4nccc5c4C(=O)N(C)CC5)c3C)c2C)cc(F)c1CNC(C)C [Example 1.184] | 10 to 1000 | – | –
COc1cc(-c2cccc(-c3cccc(NC(=O)c4cn(C)c(=O)n(C)c4=O)c3Cl)c2Cl)cc(F)c1CN[C@H]1CCOC[C@H]1O [Example 1.008] | < 10 | – | –
COc1cc(-c2cccc(-c3cccc(NC(=O)c4cn(C)c(=O)n(C)c4=O)c3C)c2C)cc(F)c1CN[C@H]1CCOC[C@@H]1O (racemic) [Example 1.013] | < 10 | – | –
COc1cc(-c2cccc(-c3cccc(NC(=O)c4cccn(C)c4=O)c3C)c2C)cc(F)c1CNC[C@@H]1CCC(=O)N1 [Example 1.157] | < 10 | – | –
COc1cc(-c2cccc(-c3cccc(NC(=O)c4cn(C)c(=O)n(C)c4=O)c3C)c2Cl)cc(F)c1CN1CCC(C)(C(=O)O)CC1 [Example 2.013] | – | – | IC50 [3]: < 10 nM
COc1cc(-c2cccc(-c3cccc(NC(=O)c4cn(C)c(=O)n(C)c4=O)c3Cl)c2Cl)cc(F)c1CN1CC2(CCNC2=O)C1 [Example 2.002] | – | – | IC50 [3]: < 10 nM
COc1cc(-c2cccc(-c3cccc(Nc4nccc5nccnc45)c3C)c2C)cc(F)c1CN[C@H]1CCNC1=O [Example 1.125] | 10 to 1000 | – | –
COc1cc(-c2cccc(-c3cccc(NC(=O)c4cn(C)c(=O)n(C)c4=O)c3Cl)c2C)cc(F)c1CN[C@H]1CCC(=O)NC1 [Example 1.026] | < 10 | – | –
COc1cc(-c2cccc(-c3cccc(NC(=O)c4cncn(C)c4=O)c3C)c2C)cc(F)c1CN[C@H]1CCC[C@H]1O [Example 1.161] | < 10 | – | –
COc1cc(-c2cccc(-c3cccc(NC(=O)c4c[nH]c(=O)n(C)c4=O)c3C)c2Cl)cc(F)c1CN[C@@H]1CNC(=O)C1 [Example 2.033] | – | – | IC50 [3]: < 10 nM
COc1cc(-c2cccc(-c3cccc(NC(=O)c4cn(C)c(=O)n(C)c4=O)c3Cl)c2C)cc(F)c1CN[C@@H]1CNC(=O)C1 [Example 1.047] | < 10 | – | –
COc1cc(-c2cccc(-c3cccc(NC(=O)c4nn(C)c(=O)n(C)c4=O)c3C)c2C)cc(F)c1CNC1CNC(=O)NC1=O (stereo not shown) [Example 1.045] | 10 to 1000 | – | –
COc1cc(-c2cccc(-c3cccc(NC(=O)c4cn(C)c(=O)n(C)c4=O)c3C)c2C)cc(F)c1CNCC1CCNC(=O)C1 (stereo not shown) [Example 1.067] | < 10 | – | –
